Reference: ChEMBL document CHEMBL1124075, “Design, synthesis, and biological activity of a peptide mimic of vasopressin” (J Med Chem, 1988)
Bridge positions count the residues as written; N and C are the ends. Square brackets hold non-standard residues; d marks the D form. Peptide text beside a SMILES is read from it. Mpa = O=C(O)CCS

Experiments:
[1] = target: Vasopressin V2 receptor (Sus scrofa) (UniProt P32307); experiment: Vasopressin V2 receptor binding affinity measured by competition with tritiated LVP lysine vasopressin in pig renal medullary preparation; conditions: Renal medulla
Sequence of Vasopressin V2 receptor (Sus scrofa) (P32307 whole entry): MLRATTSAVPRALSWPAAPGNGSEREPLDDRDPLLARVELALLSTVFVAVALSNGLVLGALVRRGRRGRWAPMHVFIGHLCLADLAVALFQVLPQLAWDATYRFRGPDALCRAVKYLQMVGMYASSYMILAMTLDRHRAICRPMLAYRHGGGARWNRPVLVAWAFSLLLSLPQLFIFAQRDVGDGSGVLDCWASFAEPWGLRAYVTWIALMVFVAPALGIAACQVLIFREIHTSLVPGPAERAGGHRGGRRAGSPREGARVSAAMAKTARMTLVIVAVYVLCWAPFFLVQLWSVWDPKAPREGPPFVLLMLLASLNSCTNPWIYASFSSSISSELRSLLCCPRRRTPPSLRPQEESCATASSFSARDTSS

Vasopressin V2 receptor = Vasopressin V2 receptor (Sus scrofa, UniProt P32307); experiment: Inhibition of LVP-sensitive adenylate cyclase in a pig renal medullary preparation; assay type: tissue-based, Renal medulla
Sequence of Vasopressin V2 receptor (P32307 whole entry): as above

Structure (SMILES) | K bind [1] | Ki (Vasopressin V2 receptor)
CC(C)[C@@H]1NC(=O)[C@H](Cc2ccccc2)NC(=O)[C@H](Cc2ccccc2)NC(=O)CCSSC[C@@H](C(=O)N2CCC[C@H]2C(=O)N[C@@H](CCCN=C(N)N)C(=O)NCC(N)=O)NC(=O)[C@H](CC(N)=O)NC1=O ([Mpa]FFVNCPRG-NH2; disulfide 1-6) | 0.1 µM | 0.01 µM
CC(C)[C@@H]1NC(=O)[C@H](Cc2ccccc2)NC(=O)[C@H](Cc2ccccc2)NC(=O)CCC[C@H](C(=O)N2CCC[C@H]2C(=O)N[C@@H](CCCN=C(N)N)C(=O)NCC(N)=O)NC(=O)[C@H](CC(N)=O)NC1=O | 29 µM | 9.2 µM
CC(C)[C@@H]1NC(=O)[C@H](Cc2ccccc2)NC(=O)[C@H](Cc2ccccc2)NC(=O)CCC[C@@H](C(=O)N2CCC[C@H]2C(=O)N[C@@H](CCCN=C(N)N)C(=O)NCC(N)=O)NC(=O)[C@H](CC(N)=O)NC1=O | 15 µM | 7 µM
